The record followed here is ChEMBL document CHEMBL1127218, “Synthesis, anti-human immunodeficiency virus, and anti-hepatitis B virus activity of pyrimidine oxathiolane nucleosides” (Bioorg Med Chem Lett, 1993).

Assay [1] relates to HepG2. The assay is described as follows: Percent inhibition for its anti-HBV activity in infected HepG2(2.2.15) cells at concentration of 25 uM. Conditions: Homo sapiens. It is filed as functional.
Assay [2] concerns MT4. Briefly: Compound was tested for its anti-HIV activity in acutely infected MT-4 cells. It is filed as functional, cell-based. Conditions: Homo sapiens.
Assay [3] is described as follows: Compound was tested for its anti-HIV activity against HIV-1 LAI in human peripheral blood mononuclear (PBM) cells. It counts as functional.
Assay [4] can be described thus: Compound was tested for its cytotoxic activity in uninfected human peripheral blood mononuclear (PBM) cells. It is filed as functional.
For assay [5], the system named is Vero. Briefly: Compound was tested for its cytotoxic activity in uninfected Vero cells. It is filed as functional, cell-based. Conditions: Chlorocebus sabaeus.
In assay [6] the test system is HepG2. Briefly: Percent inhibition for its anti-HBV activity in infected HepG2(2.2.15) cells at concentration of 1 uM. It counts as functional. As to conditions: Homo sapiens.

In general, inhibition refers to the relative decrease from the control value, in per cent. In general, EC50 refers to the concentration at which the effect is half-maximal. The low end stands for higher potency in that assay, the high end for lower potency in that assay. In general, IC50 refers to the concentration needed to halve the response being measured. Molecule `Cc1cn([C@H]2CS[C@@H](CO)O2)c(=O)nc1N` displayed an inhibition at 25 µM in assay [1] of 0%. In addition, the results for the EC50 in assay [2] and in assay [3] were more than 200 µM and more than 100 µM, respectively. In addition, the IC50 in assay [4] and in assay [5] was more than 100 µM each time.
In assay [1], `O=c1[nH]c(=O)n([C@H]2CS[C@@H](CO)O2)cc1Br` yielded an inhibition at 25 µM of 11%. Also, the EC50 in assay [2] is more than 200 µM; in assay [3], more than 100 µM. The half-maximal inhibitory concentration (IC50) in assay [4] and in assay [5] was more than 100 µM throughout.
The molecule `Nc1nc(=O)n([C@H]2CS[C@@H](CO)O2)cc1I` returned an inhibition at 25 µM in assay [1] of 55%. In addition, the EC50 in assay [2] is more than 200 µM; in assay [3], 0.72 µM. Further, the IC50 in assay [4] and in assay [5] was more than 100 µM throughout.
Take `O=c1ccn([C@H]2CS[C@@H](CO)O2)c(=O)[nH]1`: at 25 µM the inhibition in assay [1] was 0%. Also, the EC50 in assay [2] was more than 200 µM; in assay [3] it was more than 100 µM. The IC50 in assay [4] and in assay [5] was more than 100 µM each time.
`O=c1[nH]c(=O)n([C@H]2CS[C@@H](CO)O2)cc1I` displayed an inhibition at 25 µM in assay [1] of 0%. For the same molecule, the EC50 in assay [2] is more than 200 µM; in assay [3], more than 100 µM. Further, the IC50 in assay [4] and in assay [5] was more than 100 µM each time.
`O=c1[nH]c(=O)n([C@H]2CS[C@@H](CO)O2)cc1F`: the inhibition at 25 µM in assay [1] was 75%. The EC50 in assay [2] is more than 200 µM; in assay [3], more than 100 µM. For the same molecule, the IC50 in assay [4] and in assay [5] was more than 100 µM in each case.
Consider `Nc1nc(=O)n([C@H]2CS[C@@H](CO)O2)cc1Br`, for which the inhibition at 25 µM in assay [1] worked out at 84%. In addition, the EC50 is more than 200 µM in assay [2] and 2.4 µM in assay [3]. Moreover, the IC50 in assay [4] and in assay [5] was more than 100 µM each time.
`Cc1cn([C@H]2CS[C@@H](CO)O2)c(=O)[nH]c1=O`: testing at 25 µM in assay [1] gave an inhibition of 0%. Further, the figures for the EC50 in assay [2] and in assay [3] were more than 200 µM and 64.4 µM, respectively. Besides, the IC50 in assay [4] and in assay [5] was more than 100 µM throughout.
Take `Nc1nc(=O)n([C@H]2CS[C@@H](CO)O2)cc1F`: the EC50 in assay [2] amounted to 2.1 µM; in assay [3] it was 0.01 µM. Further, the IC50 in assay [4] and in assay [5] was more than 100 µM each time. The molecule further showed an inhibition at 1 µM in assay [6] of 90%.
Regarding `Nc1nc(=O)n([C@H]2CS[C@@H](CO)O2)cc1Cl`, testing at 25 µM in assay [1] gave an inhibition of 58%. The figures for the EC50 in assay [2] and in assay [3] were more than 200 µM and 38.7 µM, respectively. Also, the IC50 in assay [4] and in assay [5] was more than 100 µM throughout.
Turning to `O=c1[nH]c(=O)n([C@H]2CS[C@@H](CO)O2)cc1Cl`, the inhibition at 25 µM in assay [1] came out at 59%. Further, the EC50 in assay [2] is more than 200 µM; in assay [3], 60.8 µM. Also, the IC50 in assay [4] and in assay [5] was more than 100 µM in each case.
For `Nc1ccn([C@@H]2CS[C@H](CO)O2)c(=O)n1` [LAMIVUDINE], the values for the 50% effective concentration (EC50) in assay [2] and in assay [3] were 7 µM and 0.06 µM, respectively. For the same molecule, the IC50 in assay [4] and in assay [5] was more than 100 µM in each case. The inhibition at 1 µM in assay [6] came out at 87%.
